Patent US6576620B2, “Method of identifying partial adenosine A1 receptor agonists” (CV Therapeutics, Inc., priority 1999, dated 2003)

Key:
[1] = test system: guinea pig isolated heart; test: Monophasic action potential duration, isolated heart
Description: Signals were considered adequate if they were stable for at least 5-10 min and the amplitudes exceeded 10 mV. The data were digitized at 2 kHz by a DT-2801A digitizing board (Data Translation, Marlboro, Mass.) and were saved for analysis using the Snapshot data acquisition program (Snapshot Storage Scope, HEM Data Corp., Southfield, Mich.). The duration of the atrial and ventricular monophasic action potentials was measured from onset of depolarization to either 50 or 90% of repolarization.

Adenosine A1 receptor = test: A1-agonist stimulated [35S]GTPγS binding to G proteins; type: biochemical; conditions: for GTPγS: normalized to the full agonist CPA
Description: At the end of the incubation, each suspension was filtered and the retained radioactivity determined as described above.

In the case of `CNC(=O)OC[C@H]1OC(n2cnc3c(N[C@@H]4CCOC4)ncnc32)[C@H](O)[C@@H]1O` (stereo partly drawn) [Compound 6 of Example 2, [(5-{6-[((3R)oxolan-3-yl)amino]purin-9-yl}(3 S,2R,4R)-3,4-dihydroxyoxolan-2-yl)methoxy]-N-methylcarboxamide], the “effect on duration of ventricular or atrial monophasic action potential” value [1] is reported as “no significant effect”, the “duration of atrial monophasic action potential at 50% of repolarization” value ([1]; 20 μM compound, control 41±3) is reported as 41 ± 3 ms and the “duration of atrial monophasic action potential at 90% of repolarization” value ([1]; 20 μM compound, control 66±4) is reported as 74 ± 4 ms. The “duration of ventricular monophasic action potential at 90% of repolarization” value ([1]; 20 μM compound, control 158±4) was 160 ± 7 ms.

`OC[C@H]1O[C@@H](n2cnc3c(NC4CCCC4)ncnc32)[C@H](O)[C@@H]1O` [CPA, N^6-cyclopentyladenosine, reference compound] showed a GTPγS (Adenosine A1 receptor; Table 1, compounds of Example 2) of 100%, a GTPγS (Adenosine A1 receptor; Table 2, compounds of Example 3) of 100% and a GTPγS (Adenosine A1 receptor; Table 3, compounds of Example 4) of 100%. For the same compound, the “GTPγS (% of CPA)” value (Adenosine A1 receptor; Table 5) was 100 % of CPA.
